According to patent EP4741392A1, “1H-PYRAZOLO[4,3-C]PYRIDINE COMPOUND, AND COMPOSITION THEREOF AND USE THEREOF” (Shenzhen TargetRx Co., Ltd., priority 2023, dated 2025):
Where two headings read alike, the source gives them in different places.

Tests used:
Type in all cases: cell-based
Ramos cells with BTK WT = assay: Phosphor-BTK(Y223) assay, suspended cells; conditions: phosphorylated BTK Y223, Ramos cells with BTK WT
Experimental: (§1) The purpose of this assay was to simply, quickly and directly detect the level of endogenous BTK phosphorylation in cells.
The steps for handling suspended cells were as follows: • 1) Ramos cells with BTK WT (2.5 k/well), BTK C481S (2.5 k/well), or BTK T474I (2.5 k/well) were plated in a 96-well plate, respectively. A compound of different concentration gradients was added using Tecan D300e, and the plate was incubated at 37 °C and 5% CO2 for 2 hours. • 2) 8.33 µL of 20 mM Na3VO4 was added to bring the final concentration to 5 mM, and the plate was incubated at 37 °C and 5% CO2 for 3 h. • 3) During the incubation, the following reagents were prepared: • 4x added lysis buffer: 24 vol 4x lysis buffer + 1 vol 25x blocking reagent. • p-BTK (Y223) cryptate-antibody and p-BTK (Y223) d2-antibody working solutions: 1 volume of each cryopreserved antibody (stored at - 20 °C) was added to 38 times the volume of assay buffer (stored at 4 °C), and mixed well. • 4) After the incubation was completed, 11.1 µL of 4x added lysis buffer was directly added. The plate was shaken at 800 rpm at room temperature for 30 min. • 5) The lysate was mixed well and 16 µL of it was transferred to a 384-well plate. 1 × added lysis buffer was used as a blank control. • 6) 4 µL of pre-mixed working solutions of the two antibodies (cryptate Ab:d2 Ab = 1:1) was added, and the plate was sealed. • 7) The plate was incubated at room temperature overnight. • 8) The plate was read at 665nm and 620nm using Biotek cytation3.0 microplate reader, and the ratio of 665/620nm of each well was calculated. Data analysis: IC50 was calculated using GraphPad Prism 7.0 software.
(§2) The IC50 (half-maximal phosphorylation inhibitory concentration) of the phosphorylated BTK Y223 of the compound was obtained using the following nonlinear fitting formula: Y = Bottom + (Top−Bottom)/(1+10^(∧)((LogIC50−X)*HillSlope)) [formula] • X: Log value of the compound concentration • Y: Inhibition rate (% inhibition) • Top: Maximum response • Bottom: Baseline response • HillSlope: Slope of the curve
(§3) The formula for calculating cell phosphorylation inhibition rate (inhibition rate %) was: Inhibition rate% = 1−(eachconcentrationwell-blankwell)/(positivecontrolwell−blankwell) [formula]

NIH/3T3 BTK WT cells = assay: Phosphor-BTK(Y223) assay, adherent cells; conditions: read-out: NIH/3T3 BTK-WT pBTK
Experimental: as §1
(§4) The steps for handling adherent cells were as follows: • 1) NIH/3T3 BTK WT cells (7.5 k/well) and NIH/3T3 BTK C481S cells (10 k/well) were plated in a 96-well plate, respectively, and cultured at 37 °C and 5% CO2 overnight. • 2) A 3-fold final concentration gradient dilution of a compound was prepared, and 50 µL of it was taken and added to 100 µL of cell culture. 0.5% DMSO was used as a positive control for cell growth. • 3) The plate was incubated at 37 °C and 5% CO2 for 0.5 h. • 4) Na3VO4 at a final concentration of 1mM was added, and the plate was incubated at 37 °C and 5% CO2 for 2 hours. • 5) During the incubation, the following reagents were prepared: • 1x added lysis buffer: 3 vol ddH2O + 1 vol 4x lysis buffer + 100x blocking reagent. • p-BTK (Y223) cryptate-antibody and p-BTK (Y223) d2-antibody working solutions: 1 volume of each cryopreserved antibody (stored at - 20 °C) was added to 19 times the volume of assay buffer (stored at 4 °C). • 6) After the incubation was completed, the medium was removed and 50 µL of 1x added lysis buffer was added. The plate was centrifuged at 500 rpm at room temperature for 30 min. • 7) The lysate was mixed well and 16 µL of it was transferred to a 384-well plate. 1 × added lysis buffer was used as a blank control. • 8) 4 µL of pre-mixed working solutions of the two antibodies (cryptate Ab:d2 Ab = 1:1) was added, and the plate was sealed. • 9) The plate was incubated at room temperature overnight. 10) The plate was read at 665nm and 620nm using Biotek cytation3.0 microplate reader, and the ratio of 665/620nm of each well was calculated.
as §2, §3

NIH/3T3 BTK C481S cells = assay: Phosphor-BTK(Y223) assay, adherent cells; conditions: read-out: NIH/3T3 BTK-C481S pBTK
Experimental: as §1, §4, §2, §3

[1] = Mus musculus, NIH3T3, phosphorylated BTK Y223, NIH/3T3 BTK WT cells
[2] = Mus musculus, NIH3T3, phosphorylated BTK Y223, NIH/3T3 BTK C481S cells

IC50 (Ramos cells with BTK WT; Homo sapiens, Ramos) [nM] | IC50 (Ramos cells with BTK WT) [nM] | Compound | IC50 (NIH/3T3 BTK WT cells; [1]) [nM] | IC50 (NIH/3T3 BTK C481S cells; [2]) [nM] | IC50 (NIH/3T3 BTK WT cells; phosphorylated BTK Y223, NIH/3T3 BTK WT cells) [nM] | IC50 (NIH/3T3 BTK C481S cells; phosphorylated BTK Y223, NIH/3T3 BTK C481S cells) [nM]
> 50 | – | COc1ccc(F)cc1C(=O)NCc1ccc(-c2ncc(-c3ccc(F)cn3)c3[nH]nc(N)c23)c(C)c1 [Example 83, N-(4-(3-amino-7-(5-fluoropyridin-2-yl)-1H-pyrazolo[4,3-c]pyridin-4-yl)-3-methylbenzyl)-5-fluoro-2-methoxybenzamide] | 10 to 50 | > 50 | – | –
> 50 | – | COc1ccc(F)cc1C(=O)NCc1ccc(-c2nc(-c3ccccc3C)cc3[nH]nc(N)c23)cc1 [Example 87, N-(4-(3-amino-6-(o-tolyl)-1H-pyrazolo[4,3-c]pyridin-4-yl)benzyl)-5-fluoro-2-methoxybenzamide] | > 50 | > 50 | – | –
5 to 10 | – | COc1ccc(F)cc1C(=O)NCc1ccc(-c2nc(-c3ccccc3Cl)cc3[nH]nc(N)c23)cc1 [Example 88, N-(4-(3-amino-6-(2-chlorophenyl)-1H-pyrazolo[4,3-c]pyridin-4-yl)benzyl)-5-fluoro-2-methoxybenzamide] | 10 to 50 | > 50 | – | –
10 to 50 | – | COc1ccc(F)cc1C(=O)NCc1ccc(-c2nc(-c3c(Cl)cccc3Cl)cc3[nH]nc(N)c23)cc1 [Example 89, N-(4-(3-amino-6-(2,6-dichlorophenyl)-1H-pyrazolo[4,3-c]pyridin-4-yl)benzyl)-5-fluoro-2-methoxybenzamide] | 10 to 50 | > 50 | – | –
> 50 | – | COc1ccc(F)cc1C(=O)NCc1ccc(-c2nc(-c3ccc(C(=O)O)cc3)cc3[nH]nc(N)c23)cc1 [Example 90, 4-(3-amino-4-(4-((5-fluoro-2-methoxybenzoylamino)methyl)phenyl)-1H-pyrazolo[4,3-c]pyridin-6-yl)benzoic acid] | > 50 | > 50 | – | –
10 to 50 | – | Nc1n[nH]c2cc(C3CC[S+]([O-])CC3)nc(-c3ccc(CNC(=O)c4cc(F)ccc4O)cc3)c12 (stereo not drawn) [Example 92, N-(4-(3-amino-6-(1-oxidotetrahydro-2H-thiopyran-4-yl)-1H-pyrazolo[4,3-c]pyridin-4-yl)benzyl)-5-fluoro-2-hydroxybenzamide] | > 50 | > 50 | – | –
> 50 | – | COc1ccc(F)cc1C(=O)NCc1ccc(-c2nc(C3CCS(=O)(=O)CC3)cc3[nH]nc(N)c23)cc1 [Example 93, N-(4-(3-amino-6-(1,1-dioxidotetrahydro-2H-thiopyran-4-yl)-1H-pyrazolo[4,3-c]pyridin-4-yl)benzyl)-5-fluoro-2-methoxybenzamide] | > 50 | > 50 | – | –
> 50 | – | COc1ccc(F)cc1C(=O)NCc1ccc(-c2nc(Cl)cc3[nH]nc(N)c23)cc1 [Example 94, N-(4-(3-amino-6-chloro-1H-pyrazolo[4,3-c]pyridin-4-yl)benzyl)-5-fluoro-2-methoxybenzamide] | > 50 | > 50 | – | –
5 to 10 | – | COc1ccc(F)cc1C(=O)NCc1ccc(-c2nc(C3CCCN(C(=O)Nc4ccccc4)C3)cc3[nH]nc(N)c23)cc1 (stereo not drawn) [Example 95, 3-(3-amino-4-(4-((5-fluoro-2-methoxybenzoylamino)methyl)phenyl)-1H-pyrazolo[4,3-c]pyridin-6-yl)-N-phenylpiperidine-1-carboxamide] | > 50 | > 50 | – | –
5 to 10 | – | COc1ccc(F)cc1C(=O)NCc1ccc(-c2nc(C3CCN(C(=O)Nc4ccccc4)CC3)cc3[nH]nc(N)c23)cc1 [Example 97, 4-(3-amino-4-(4-((5-fluoro-2-methoxvbenzoylamino)methyl)phenyl)-1H-pyrazolo[4,3-c]pyridin-6-yl)-N-phenylpiperidine-1-carboxamide] | > 50 | > 50 | – | –
> 50 | – | COc1ccc(F)cc1C(=O)NCc1ccc(-c2ncc(-c3cnn4ccncc34)c3[nH]nc(N)c23)cc1 [Example 109, N-(4-(3-amino-7-(pyrazolo[1,5-a]pyrazin-3-yl)-1H-pyrazolo[4,3-c]pyridin-4-yl)benzyl)-5-fluoro-2-methoxybenzamide] | > 50 | > 50 | – | –
> 50 | – | COc1ccc(F)cc1C(=O)NCc1ccc(-c2ncc(-c3cnc4cccnn34)c3[nH]nc(N)c23)cc1 [Example 110, N-(4-(3-amino-7-(imidazo[1,2-b]pyridazin-3-yl)-1H-pyrazolo[4,3-c]pyridin-4-yl)benzyl)-5-fluoro-2-methoxybenzamide] | > 50 | > 50 | – | –
> 50 | – | COc1ccc(F)cc1C(=O)NCc1ccc(-c2ncc(-c3ccnc4ccnn34)c3[nH]nc(N)c23)cc1 [Example 111, N-(4-(3-amino-7-(pyrazolo[1,5-a]pyrimidin-7-yl)-1H-pyrazolo[4,3-c]pyridin-4-yl)benzyl)-5-fluoro-2-methoxybenzamide] | > 50 | > 50 | – | –
≤ 5 | – | COc1ccc(F)cc1C(=O)NCc1ccc(-c2ncc(-c3ncn4ccccc34)c3[nH]nc(N)c23)cc1 [Example 113, N-(4-(3-amino-7-(imidazo[1,5-a]pyridin-1-yl)-1H-pyrazolo[4,3-c]pyridin-4-yl)benzyl)-5-fluoro-2-methoxybenzamide] | ≤ 5 | ≤ 5 | – | –
> 50 | – | COc1ccc(F)cc1C(=O)NCc1ccc(-c2nccc3[nH]nc(N)c23)cc1 [Example 116, N-(4-(3-amino-1H-pyrazolo[4,3-c]pyridin-4-yl)benzyl)-5-fluoro-2-methoxvbenzamide] | > 50 | > 50 | – | –
– | > 50 | N-(4-(3-amino-7-(1,7-naphthyridin-2-yl)-1H-pyrazolo[4,3-c]pyridin-4-yl)benzyl)-5-fluoro-2-methoxybenzamide [Example 49] | – | – | > 50 | > 50
